Measured values as given in ChEMBL document CHEMBL1201862, “PubChem BioAssay data set” (2004).
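In this assay, cells in 96-well plates receive the compound at five concentrations for 48 hours. Endpoints are linearly interpolated between the surrounding concentrations. GI50: concentration for 50% inhibition of growth.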 The source made the active and inactive calls. Cut-off read from the data, not from the text of the source: active = GI50 up to about 1.1 µM and inactive = higher.

Experiments:
Test in all cases: DTP human tumour cell line panel, 48 h
[1] = system: RPMI-8226
[2] = system: SW-620
[3] = system: SN12C
[4] = system: UACC-62
[5] = system: LOX IMVI
[6] = system: SF-268
[7] = system: HCT-116
[8] = system: UO-31
[9] = system: SF-295
[10] = system: M14
[11] = system: SNB-75
[12] = system: KM12
[13] = system: EKVX
[14] = system: SK-OV-3
[15] = system: NCI-H522
[16] = system: K562
[17] = system: SK-MEL-2
[18] = system: COLO 205
[19] = system: HOP-62
[20] = system: SK-MEL-28

Measured: GI50

C1=Cc2nccc3cc4c(c(c23)N1)OCO4
inactive: [1] 4.53 µM | [2] 5.68 µM | [3] 4.89 µM | [4] 14.1 µM | [5] 8.61 µM | [6] 8.13 µM | [7] 3.08 µM | [8] 6.44 µM | [9] 3.36 µM | [10] 18.4 µM | [11] 6.93 µM | [12] 6.73 µM | [13] 9.55 µM | [14] 5.92 µM | [15] 2.42 µM | [16] 3.17 µM | [17] 13.3 µM | [18] 3.55 µM | [19] 7.62 µM | [20] 24 µM

CC1CC(Br)C(=O)O1 (stereo not given)
inactive: [1] 38.6 µM | [2] > 100 µM | [3] > 100 µM | [4] > 100 µM | [5] > 100 µM | [6] > 100 µM | [7] > 100 µM | [8] > 100 µM | [9] > 100 µM | [10] > 100 µM | [11] 70 µM | [12] > 100 µM | [13] > 100 µM | [14] > 100 µM | [15] > 100 µM | [16] 47 µM | [17] > 100 µM | [18] > 100 µM | [19] > 100 µM | [20] > 100 µM
